Patent US11072588B2, “Barbituric acid derivatives comprising cationic and lipophilic groups” (UNIVERSITETET I TROMSØ—NORGES ARKTISKE UNIVERSITET, priority 2017, dated 2021)
≈ marks a conversion by molar mass, not a printed value.

Experiments:
[1] = tested on: E. faecium K36-18; assay: MIC, multi-resistant clinical isolate; format: cell-based, Enterococcus faecium
Experimental: (§1) Working solutions of the test derivatives were prepared with up to 100% DMSO and stored at −20° C. If necessary, the solutions were heated to 40-80° C. before testing to facilitate complete dissolution. Double-distilled water was used in all dilutions prepared. […] A microdilution susceptibility test was used for MIC determination according to Clinical and Laboratory Standards Institute, “Methods for Dilution Antimicrobial Sisceptibility Tests for Bacteria That Graw Aerobically”, Approved Standard M07-A9, edition 2012, with modifications as described by Igumnova et al (Bioorg Med Chem, 2016, 24 (22), 5884-5894).
(§2) Briefly, the bacterial inoculum was adjusted to approximately 2.5-3×10^4 cells/mL in Mueller-Hinton broth (MHB, Difco Laboratories, USA), and incubated in a ratio of 1:1 with test derivatives in polystyrene 96-well flat-bottom microplates (NUNC, Roskilde, Denmark). Positive growth control (without test derivatives) and negative control (without bacteria) were included. The reference antibiotic was oxytetracycline hydrochloride (Sigma Aldrich, Saint Louis, Mo., USA). The microplates were incubated in an EnVision microplate reader (Perkin-Elmer, Turku, Finland) placed in an incubator set to 35° C. for 48 h. The MIC value was defined as the lowest concentration of derivative resulting in no bacterial growth as determined by OD600 measurement. All derivatives were tested in three parallels.
(§3) The MIC was determined as explained above with some exceptions; working solutions of test derivatives were prepared from concentrated DMSO stocks stored at room temperature, the density of the bacterial inoculum was increased 40× to 1-1.2×10^6 cells/mL, enterococci were incubated in Brain Heart Infusion broth (BHIB, Difco Laboratories, USA), the microplates were incubated for 24 h, and the derivatives were tested in four parallels.

[2] = tested on: E. faecium 50901530; assay: MIC, multi-resistant clinical isolate; format: cell-based, Enterococcus faecium
Experimental: as §1, §2, §3

[3] = tested on: E. faecium 50758899; assay: MIC, multi-resistant clinical isolate; format: cell-based, Enterococcus faecium
Experimental: as §1, §2, §3

[4] = tested on: E. faecium 50673722; assay: MIC, multi-resistant clinical isolate; format: cell-based, Enterococcus faecium
Experimental: as §1, §2, §3

[5] = tested on: E. faecium TUH50-22; assay: MIC, multi-resistant clinical isolate; format: cell-based, Enterococcus faecium
Experimental: as §1, §2, §3

[6] = tested on: P. aeruginosa 50692520; assay: MIC, multi-resistant clinical isolate; format: cell-based, Pseudomonas aeruginosa
Experimental: as §1, §2, §3

[7] = tested on: P. aeruginosa K44-24; assay: MIC, multi-resistant clinical isolate; format: cell-based, Pseudomonas aeruginosa
Experimental: as §1, §2, §3

[8] = tested on: P. aeruginosa K34-7; assay: MIC, multi-resistant clinical isolate; format: cell-based, Pseudomonas aeruginosa
Experimental: as §1, §2, §3

[9] = tested on: P. aeruginosa 50692172; assay: MIC, multi-resistant clinical isolate; format: cell-based, Pseudomonas aeruginosa
Experimental: as §1, §2, §3

[10] = tested on: P. aeruginosa K34-73; assay: MIC, multi-resistant clinical isolate; format: cell-based, Pseudomonas aeruginosa; details: P. aeruginosa K34-73
Experimental: as §1, §2, §3

[11] = tested on: E. coli 50579417; assay: MIC, multi-resistant clinical isolate; format: cell-based, Escherichia coli
[12] = tested on: E. coli 50857972; assay: MIC, multi-resistant clinical isolate; format: cell-based, Escherichia coli
[13] = tested on: E. coli 50676002; assay: MIC, multi-resistant clinical isolate; format: cell-based, Escherichia coli; details: E. coli 50676002
[14] = tested on: E. coli 50639799; assay: MIC, multi-resistant clinical isolate; format: cell-based, Escherichia coli
[15] = tested on: K. pneumoniae 50667959; assay: MIC, multi-resistant clinical isolate; format: cell-based, Klebsiella pneumoniae
Experimental: as §1, §2, §3

[16] = tested on: K. pneumoniae 50625602; assay: MIC, multi-resistant clinical isolate; format: cell-based, Klebsiella pneumoniae
Experimental: as §1, §2, §3

[17] = tested on: K. pneumoniae K66-45; assay: MIC, multi-resistant clinical isolate; format: cell-based, Klebsiella pneumoniae
Experimental: as §1, §2, §3

[18] = tested on: K. pneumoniae 50531633; assay: MIC, multi-resistant clinical isolate; format: cell-based, Klebsiella pneumoniae; details: K. pneumoniae 50531633, resistant to colistin
Experimental: as §1, §2, §3

[19] = tested on: K. pneumoniae K47-25; assay: MIC, multi-resistant clinical isolate; format: cell-based, Klebsiella pneumoniae; details: K. pneumoniae K47-25, resistant to colistin
Experimental: as §1, §2, §3

[20] = tested on: panel of 30 multi-resistant clinical isolates of Gram-positive and Gram-negative bacteria; assay: MIC screening, ranges over the panel of clinical isolates; format: cell-based; details: read-out: MIC values against all the 30 multi-resistant clinical isolates
Experimental: as §1, §2, §3

[21] = tested on: Pseudomonas aeruginosa PA01, DSM 19880 (ATCC 15692); assay: MIC assay, antibiotic susceptible reference strain; format: cell-based; details: Pseudomonas aeruginosa, read-out: Antimicrobial activity (MIC) P. a
Experimental: as §1, §2

[22] = tested on: Staphylococcus aureus ATCC 9144; assay: MIC assay, antibiotic susceptible reference strain; format: cell-based; details: Staphylococcus aureus, ATCC9144, read-out: Antimicrobial activity (MIC) S. a
Experimental: as §1, §2

[23] = tested on: Escherichia coli ATCC 25922; assay: MIC assay, antibiotic susceptible reference strain; format: cell-based; details: Escherichia coli, ATCC25922, read-out: Antimicrobial activity (MIC) E. c
Experimental: as §1, §2

[24] = Enterococcus faecium, read-out: Antimicrobial activity (MIC)
[25] = Pseudomonas aeruginosa, read-out: Antimicrobial activity (MIC)
[26] = Escherichia coli, read-out: Antimicrobial activity (MIC)
[27] = Klebsiella pneumoniae, read-out: Antimicrobial activity (MIC)

N=C(N)NCCCCN1C(=O)N(CCCCNC(=N)N)C(=O)C(Cc2ccc(F)c3ccccc23)(Cc2ccc(F)c3ccccc23)C1=O [8(v), 1,1′-(4,4′-(5,5-bis((4-fluoronaphthalen-1-yl)methyl)-2,4,6-trioxodihydropyrimidine-1,3(2H,4H)-diyl)bis(butane-4,1-diyl))diguanidine]
MIC ([1]; Enterococcus faecium, K3618, read-out: Antimicrobial activity (MIC)): 4 µg/mL (≈ 5.96 µM)
selectivity index (EC50/MIC) ([1]; RBC EC50 / MIC, E. faecium K36-18): (22)
MIC [2, 24]: 4 µg/mL (≈ 5.96 µM)
selectivity index (EC50/MIC) ([2]; RBC EC50 / MIC): (22)
MIC [3, 24]: 4 µg/mL (≈ 5.96 µM)
selectivity index (EC50/MIC) ([3]; RBC EC50 / MIC): (22)
MIC [4, 24]: 4 µg/mL (≈ 5.96 µM)
selectivity index (EC50/MIC) ([4]; RBC EC50 / MIC): (22)
MIC ([5]; Enterococcus faecium, TUH5022, read-out: Antimicrobial activity (MIC)): 4 µg/mL (≈ 5.96 µM)
selectivity index (EC50/MIC) ([5]; RBC EC50 / MIC): (22)
MIC [6, 25]: 16 µg/mL (≈ 23.9 µM)
selectivity index (EC50/MIC) ([6]; RBC EC50 / MIC): (6)
MIC ([7]; Pseudomonas aeruginosa, K4424, read-out: Antimicrobial activity (MIC)): 16 µg/mL (≈ 23.9 µM)
selectivity index (EC50/MIC) ([7]; RBC EC50 / MIC): (6)
MIC ([8]; Pseudomonas aeruginosa, K347, read-out: Antimicrobial activity (MIC)): 16 µg/mL (≈ 23.9 µM)
selectivity index (EC50/MIC) ([8]; RBC EC50 / MIC, P. aeruginosa K34-7): (6)
MIC [9, 25]: 16 µg/mL (≈ 23.9 µM)
selectivity index (EC50/MIC) ([9]; RBC EC50 / MIC): (6)
MIC ([10]; Pseudomonas aeruginosa, K3473, read-out: Antimicrobial activity (MIC)): 8 µg/mL (≈ 11.9 µM)
selectivity index (EC50/MIC) ([10]; RBC EC50 / MIC): (11)
MIC [11, 26]: 8 µg/mL (≈ 11.9 µM)
selectivity index (EC50/MIC) ([11]; RBC EC50 / MIC): (11)
MIC [12, 26]: 4 µg/mL (≈ 5.96 µM)
selectivity index (EC50/MIC) ([12]; RBC EC50 / MIC): (22)
MIC [13, 26]: 4 µg/mL (≈ 5.96 µM)
selectivity index (EC50/MIC) ([13]; RBC EC50 / MIC): (22)
MIC [14, 26]: 4 µg/mL (≈ 5.96 µM)
selectivity index (EC50/MIC) ([14]; RBC EC50 / MIC): (22)
MIC [15, 27]: 4 µg/mL (≈ 5.96 µM)
selectivity index (EC50/MIC) ([15]; RBC EC50 / MIC): (22)
MIC [16, 27]: 16 µg/mL (≈ 23.9 µM)
selectivity index (EC50/MIC) ([16]; RBC EC50 / MIC): (6)
MIC ([17]; Klebsiella pneumoniae, K6645, read-out: Antimicrobial activity (MIC)): 4 µg/mL (≈ 5.96 µM)
selectivity index (EC50/MIC) ([17]; RBC EC50 / MIC, K. pneumoniae K66-45): (22)
MIC ([18]; Klebsiella pneumoniae, 24 h, read-out: Antimicrobial activity (MIC)): 8 µg/mL (≈ 11.9 µM)
selectivity index (EC50/MIC) ([18]; RBC EC50 / MIC): (11)
MIC ([19]; Klebsiella pneumoniae, K4725, 24 h, read-out: Antimicrobial activity (MIC)): 8 µg/mL (≈ 11.9 µM)
selectivity index (EC50/MIC) ([19]; RBC EC50 / MIC): (11)
MIC [20]: 2 to 16 µg/mL (≈ 2.98 to 23.9 µM)
MIC [21]: 4 µg/mL (≈ 5.96 µM)
MIC [22]: 1 µg/mL (≈ 1.49 µM)
MIC [23]: 1 µg/mL (≈ 1.49 µM)
